Test results taken from patent US10844077B2, “Thiazolyl-containing compounds for treating proliferative diseases” (Dana-Farber Cancer Institute, Inc., priority 2014, dated 2020).

What was measured:
Assay in all cases: KINATIV assay of compounds I-3 and I-9, lysate directly labeled with ATP-biotin probe (no GF)
Format in all cases: cell-based
[1] = target: kinases in BCWM.1 cells (Homo sapiens, UniProt Q86SG6); details: NEK8; Lys2; 1 μM, 90 min; no GF
Protocol: (§1) The cells were harvested and lysed. […] Bound kinases were identified and quantitated by ACTIVX as described in Patricelli et al., Biochemistry, 2007, 46(2): 350-358. The compounds were tested in duplicates against duplicate or quadruplicate control samples.

[2] = target: kinases in BCWM.1 cells (Homo sapiens, UniProt Q9UHD2); details: TBK1; Lys1; 1 μM, 90 min; no GF
Protocol: as §1

[3] = target: kinases in BCWM.1 cells (Homo sapiens, UniProt Q96SB4); details: SRPK1; Lys2; 1 μM, 90 min; no GF
Protocol: as §1

[4] = target: kinases in BCWM.1 cells (Homo sapiens, UniProt P29597); details: TYK2 domain2; Activation Loop; 1 μM, 90 min; no GF
Protocol: as §1

[5] = target: kinases in BCWM.1 cells (Homo sapiens, UniProt Q7RTN6); details: STLK5; Activation Loop; 1 μM, 90 min; no GF
Protocol: as §1

[6] = target: kinases in BCWM.1 cells (Homo sapiens, UniProt Q96S38); details: RSKL1; ATP; 1 μM, 90 min; no GF
Protocol: as §1

[7] = target: kinases in BCWM.1 cells (Homo sapiens, UniProt Q9H2G2); details: SLK; Lys2; 1 μM, 90 min; no GF
Protocol: as §1

[8] = target: kinases in BCWM.1 cells (Homo sapiens, UniProt Q9BYT3); details: STK33; Lys2; 1 μM, 90 min; no GF
Protocol: as §1

[9] = target: kinases in BCWM.1 cells (Homo sapiens, UniProt P53350); details: PLK1; Lys1; 1 μM, 90 min; no GF
Protocol: as §1

[10] = target: kinases in BCWM.1 cells (Homo sapiens, UniProt Q86Y07); details: VRK2; Lys2; 1 μM, 90 min; no GF
Protocol: as §1

[11] = target: kinases in BCWM.1 cells (Homo sapiens, UniProt Q9UBF8); details: PI4KB; ATP; 1 μM, 90 min; no GF
Protocol: as §1

[12] = target: kinases in BCWM.1 cells (Homo sapiens, UniProt P51812); details: Lys2, 1 μM, 90 min, no GF
Protocol: as §1

[13] = target: kinases in BCWM.1 cells (Homo sapiens, UniProt Q16512); details: PKN1; Lys1; 1 μM, 90 min; no GF
Protocol: as §1

[14] = target: kinases in BCWM.1 cells (Homo sapiens, UniProt Q96Q15); details: SMG1; ATP; 1 μM, 90 min; no GF
Protocol: as §1

[15] = target: kinases in BCWM.1 cells (Homo sapiens, UniProt Q16816); details: PHKg1; Protein Kinase Domain; 1 μM, 90 min; no GF
Protocol: as §1

[16] = target: kinases in BCWM.1 cells (Homo sapiens, UniProt Q8NEB9); details: PIK3C3; ATP; 1 μM, 90 min; no GF
Protocol: as §1

[17] = target: kinases in BCWM.1 cells (Homo sapiens, UniProt P04049); details: RAF1; Lys2; 1 μM, 90 min; no GF
Protocol: as §1

[18] = target: kinases in BCWM.1 cells (Homo sapiens, UniProt P21127); details: PITSLRE; Lys2; 1 μM, 90 min; no GF
Protocol: as §1

[19] = target: kinases in BCWM.1 cells (Homo sapiens, UniProt P12931); details: SRC; Lys1; 1 μM, 90 min; no GF
Protocol: as §1

[20] = target: kinases in BCWM.1 cells (Homo sapiens, UniProt P48426); details: PIP4K2A; ATP; 1 μM, 90 min; no GF
Protocol: as §1

[21] = target: kinases in BCWM.1 cells (Homo sapiens, UniProt P48736); details: PIK3CG; ATP; 1 μM, 90 min; no GF
Protocol: as §1

[22] = target: kinases in BCWM.1 cells (Homo sapiens, UniProt P19525); details: PKR; Lys2; 1 μM, 90 min; no GF
Protocol: as §1

[23] = target: kinases in BCWM.1 cells (Homo sapiens, UniProt Q15208); details: NDR1; Lys2; 1 μM, 90 min; no GF
Protocol: as §1

[24] = target: kinases in BCWM.1 cells (Homo sapiens, UniProt Q8TBX8); details: PIP4K2C; ATP; 1 μM, 90 min; no GF
Protocol: as §1

[25] = target: kinases in BCWM.1 cells (Homo sapiens, UniProt Q9UKE5); details: ZC2/TNIK; Lys1; 1 μM, 90 min; no GF
Protocol: as §1

[26] = target: kinases in BCWM.1 cells (Homo sapiens, UniProt Q13464); details: ROCK1; Protein Kinase Domain; 1 μM, 90 min; no GF
Protocol: as §1

[27] = target: kinases in BCWM.1 cells (Homo sapiens, UniProt Q96BR1); details: SGK3; Lys1; 1 μM, 90 min; no GF
Protocol: as §1

[28] = target: kinases in BCWM.1 cells (Homo sapiens, UniProt Q9Y572); details: RIPK3; Lys2; 1 μM, 90 min; no GF
Protocol: as §1

kinases in BCWM.1 cells (Homo sapiens, UniProt P53350), sequence (P53350 2-603 limits assumed): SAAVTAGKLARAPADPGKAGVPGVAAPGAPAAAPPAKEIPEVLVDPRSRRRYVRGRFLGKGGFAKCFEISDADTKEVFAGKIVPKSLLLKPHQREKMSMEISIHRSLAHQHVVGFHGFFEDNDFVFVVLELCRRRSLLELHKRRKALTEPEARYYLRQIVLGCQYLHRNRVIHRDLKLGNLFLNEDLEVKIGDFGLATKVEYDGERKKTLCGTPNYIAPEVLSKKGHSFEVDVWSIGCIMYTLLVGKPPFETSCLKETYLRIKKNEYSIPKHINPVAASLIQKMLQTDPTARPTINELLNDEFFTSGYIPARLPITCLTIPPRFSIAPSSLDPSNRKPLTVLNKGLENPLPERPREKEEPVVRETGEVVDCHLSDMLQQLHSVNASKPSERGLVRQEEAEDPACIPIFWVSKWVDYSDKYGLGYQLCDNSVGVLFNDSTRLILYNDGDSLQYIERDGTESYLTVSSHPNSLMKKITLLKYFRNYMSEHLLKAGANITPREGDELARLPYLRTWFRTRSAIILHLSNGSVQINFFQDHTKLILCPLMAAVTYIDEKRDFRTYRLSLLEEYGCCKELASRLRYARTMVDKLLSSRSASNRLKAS
kinases in BCWM.1 cells (Homo sapiens, UniProt P48426), sequence (P48426 2-406 limits assumed): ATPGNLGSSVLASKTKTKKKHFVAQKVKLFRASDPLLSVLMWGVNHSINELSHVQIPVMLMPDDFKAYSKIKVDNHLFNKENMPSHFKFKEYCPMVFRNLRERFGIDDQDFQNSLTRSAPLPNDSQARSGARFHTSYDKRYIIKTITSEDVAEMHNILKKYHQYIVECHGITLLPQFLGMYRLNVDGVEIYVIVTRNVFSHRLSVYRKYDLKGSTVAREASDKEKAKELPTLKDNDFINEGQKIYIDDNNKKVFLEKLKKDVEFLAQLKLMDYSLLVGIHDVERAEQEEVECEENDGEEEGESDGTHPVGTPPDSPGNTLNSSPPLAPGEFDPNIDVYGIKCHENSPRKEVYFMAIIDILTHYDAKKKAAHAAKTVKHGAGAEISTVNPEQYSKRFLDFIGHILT
kinases in BCWM.1 cells (Homo sapiens, UniProt P12931), sequence (P12931 2-536 limits assumed): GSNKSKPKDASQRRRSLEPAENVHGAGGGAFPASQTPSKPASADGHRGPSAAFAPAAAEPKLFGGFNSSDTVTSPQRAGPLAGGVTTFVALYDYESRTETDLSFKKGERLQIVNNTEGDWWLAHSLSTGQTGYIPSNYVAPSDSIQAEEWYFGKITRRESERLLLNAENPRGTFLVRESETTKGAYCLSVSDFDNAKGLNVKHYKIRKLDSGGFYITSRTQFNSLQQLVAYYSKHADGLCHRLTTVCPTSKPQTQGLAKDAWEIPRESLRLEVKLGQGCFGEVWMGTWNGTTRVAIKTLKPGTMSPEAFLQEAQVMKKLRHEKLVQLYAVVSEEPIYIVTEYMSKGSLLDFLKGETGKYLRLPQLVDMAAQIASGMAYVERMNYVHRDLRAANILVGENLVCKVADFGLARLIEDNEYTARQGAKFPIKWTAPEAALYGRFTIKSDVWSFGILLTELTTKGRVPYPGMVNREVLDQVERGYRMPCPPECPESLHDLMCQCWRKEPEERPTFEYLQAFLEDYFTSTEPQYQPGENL
kinases in BCWM.1 cells (Homo sapiens, UniProt P19525), sequence (P19525 2-551 limits assumed): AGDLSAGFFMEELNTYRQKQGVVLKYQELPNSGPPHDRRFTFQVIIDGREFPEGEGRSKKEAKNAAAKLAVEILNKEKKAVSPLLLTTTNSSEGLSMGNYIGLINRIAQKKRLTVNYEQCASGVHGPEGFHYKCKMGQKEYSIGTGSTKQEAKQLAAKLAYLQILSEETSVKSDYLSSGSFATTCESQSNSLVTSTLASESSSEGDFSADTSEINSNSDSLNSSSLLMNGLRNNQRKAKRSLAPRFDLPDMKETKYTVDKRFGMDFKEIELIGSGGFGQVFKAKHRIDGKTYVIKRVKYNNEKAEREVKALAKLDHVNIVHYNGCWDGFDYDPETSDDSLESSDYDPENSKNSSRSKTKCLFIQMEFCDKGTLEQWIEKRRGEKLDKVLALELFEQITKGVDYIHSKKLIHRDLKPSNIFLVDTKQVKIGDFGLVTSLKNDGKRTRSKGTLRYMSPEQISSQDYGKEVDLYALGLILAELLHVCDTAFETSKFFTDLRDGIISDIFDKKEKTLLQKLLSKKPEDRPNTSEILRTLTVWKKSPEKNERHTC
kinases in BCWM.1 cells (Homo sapiens, UniProt Q13464), sequence (Q13464 2-1354 limits assumed): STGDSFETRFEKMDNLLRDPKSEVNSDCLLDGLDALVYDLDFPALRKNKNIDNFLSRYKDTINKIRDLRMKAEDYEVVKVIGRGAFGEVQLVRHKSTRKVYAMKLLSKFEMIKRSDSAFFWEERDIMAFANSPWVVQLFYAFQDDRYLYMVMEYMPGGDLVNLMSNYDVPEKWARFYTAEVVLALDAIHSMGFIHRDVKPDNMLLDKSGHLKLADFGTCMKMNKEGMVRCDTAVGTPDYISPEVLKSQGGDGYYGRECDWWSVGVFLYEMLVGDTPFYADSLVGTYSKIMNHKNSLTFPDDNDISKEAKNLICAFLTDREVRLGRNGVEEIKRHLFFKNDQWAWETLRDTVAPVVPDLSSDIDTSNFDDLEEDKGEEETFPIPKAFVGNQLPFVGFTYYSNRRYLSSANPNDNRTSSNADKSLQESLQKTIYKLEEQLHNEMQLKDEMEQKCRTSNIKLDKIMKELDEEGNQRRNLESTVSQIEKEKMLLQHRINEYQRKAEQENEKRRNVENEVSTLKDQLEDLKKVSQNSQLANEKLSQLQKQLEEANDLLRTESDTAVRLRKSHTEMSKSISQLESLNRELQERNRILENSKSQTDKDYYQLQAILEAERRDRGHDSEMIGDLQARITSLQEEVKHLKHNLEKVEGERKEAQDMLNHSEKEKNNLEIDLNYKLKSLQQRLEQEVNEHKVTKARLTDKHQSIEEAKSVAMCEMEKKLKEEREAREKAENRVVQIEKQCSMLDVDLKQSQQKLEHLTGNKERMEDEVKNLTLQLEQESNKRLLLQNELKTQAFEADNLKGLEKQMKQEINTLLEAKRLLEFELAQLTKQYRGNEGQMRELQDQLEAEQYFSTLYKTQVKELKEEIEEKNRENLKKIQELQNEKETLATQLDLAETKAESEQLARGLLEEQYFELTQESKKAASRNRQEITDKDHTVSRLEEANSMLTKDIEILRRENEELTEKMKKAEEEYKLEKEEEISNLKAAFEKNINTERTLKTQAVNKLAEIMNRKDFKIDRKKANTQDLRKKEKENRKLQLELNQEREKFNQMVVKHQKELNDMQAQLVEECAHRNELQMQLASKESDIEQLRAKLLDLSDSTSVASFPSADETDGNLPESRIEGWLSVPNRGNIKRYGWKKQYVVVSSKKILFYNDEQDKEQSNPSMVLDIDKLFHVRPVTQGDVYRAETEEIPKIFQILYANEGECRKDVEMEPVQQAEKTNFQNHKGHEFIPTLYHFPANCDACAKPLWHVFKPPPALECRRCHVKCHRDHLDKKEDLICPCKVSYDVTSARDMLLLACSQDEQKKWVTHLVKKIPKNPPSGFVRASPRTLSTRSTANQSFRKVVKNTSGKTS
kinases in BCWM.1 cells (Homo sapiens, UniProt Q9UBF8), sequence (Q9UBF8 2-816 limits assumed): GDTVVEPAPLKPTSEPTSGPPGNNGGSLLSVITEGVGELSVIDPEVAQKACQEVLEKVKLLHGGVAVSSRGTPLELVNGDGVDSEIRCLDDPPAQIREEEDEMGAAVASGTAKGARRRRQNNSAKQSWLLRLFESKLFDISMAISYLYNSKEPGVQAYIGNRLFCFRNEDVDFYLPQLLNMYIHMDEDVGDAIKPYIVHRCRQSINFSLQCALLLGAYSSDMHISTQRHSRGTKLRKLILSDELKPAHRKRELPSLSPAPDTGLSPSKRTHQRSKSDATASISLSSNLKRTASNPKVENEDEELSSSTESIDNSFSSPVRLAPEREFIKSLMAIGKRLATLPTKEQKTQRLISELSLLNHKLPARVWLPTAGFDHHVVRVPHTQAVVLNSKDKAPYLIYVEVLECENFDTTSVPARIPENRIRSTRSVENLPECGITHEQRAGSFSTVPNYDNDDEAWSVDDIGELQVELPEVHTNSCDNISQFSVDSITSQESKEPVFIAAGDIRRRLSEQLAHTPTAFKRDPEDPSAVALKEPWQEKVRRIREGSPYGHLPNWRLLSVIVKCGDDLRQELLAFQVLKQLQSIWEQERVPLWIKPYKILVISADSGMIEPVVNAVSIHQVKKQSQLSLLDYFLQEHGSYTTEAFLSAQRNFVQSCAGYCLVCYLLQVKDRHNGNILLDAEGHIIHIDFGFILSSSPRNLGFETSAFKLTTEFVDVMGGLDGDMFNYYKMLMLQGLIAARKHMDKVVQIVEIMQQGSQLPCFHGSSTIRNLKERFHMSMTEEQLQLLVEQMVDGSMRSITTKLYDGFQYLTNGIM
kinases in BCWM.1 cells (Homo sapiens, UniProt Q8TBX8), sequence (Q8TBX8 2-421 limits assumed): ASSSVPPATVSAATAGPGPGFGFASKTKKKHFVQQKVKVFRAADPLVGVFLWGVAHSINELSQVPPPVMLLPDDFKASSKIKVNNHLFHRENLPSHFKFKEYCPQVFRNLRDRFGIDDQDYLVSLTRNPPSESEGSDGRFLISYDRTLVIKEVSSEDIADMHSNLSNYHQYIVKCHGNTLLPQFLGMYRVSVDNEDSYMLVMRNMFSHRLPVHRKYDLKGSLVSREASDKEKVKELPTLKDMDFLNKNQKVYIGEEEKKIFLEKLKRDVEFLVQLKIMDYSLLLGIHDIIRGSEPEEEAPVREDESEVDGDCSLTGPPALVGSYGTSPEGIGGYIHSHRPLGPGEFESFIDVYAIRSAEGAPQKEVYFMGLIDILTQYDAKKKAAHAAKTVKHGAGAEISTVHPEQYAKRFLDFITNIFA

SMILES	% change of MS signal compared to control sample [1] [%]	% change of MS signal compared to control sample [2] [%]	% change of MS signal compared to control sample [3] [%]	% change of MS signal compared to control sample [4] [%]	% change of MS signal compared to control sample [5] [%]	% change of MS signal compared to control sample [6] [%]	% change of MS signal compared to control sample [7] [%]	% change of MS signal compared to control sample [8] [%]	% change of MS signal compared to control sample [9] [%]	% change of MS signal compared to control sample [10] [%]	% change of MS signal compared to control sample [11] [%]	% change of MS signal compared to control sample ([12]; RSK2 domain1) [%]	% change of MS signal compared to control sample ([12]; RSK2 domain2) [%]	% change of MS signal compared to control sample [13] [%]	% change of MS signal compared to control sample [14] [%]	% change of MS signal compared to control sample [15] [%]	% change of MS signal compared to control sample [16] [%]	% change of MS signal compared to control sample [17] [%]	% change of MS signal compared to control sample [18] [%]	% change of MS signal compared to control sample [19] [%]	also measured
CCC(=O)N1CC[C@H](Nc2nccc(Nc3ncc(C(=O)Nc4c(C)cccc4C)s3)n2)C1 [Example I-9]	−14.1	23	−4	−17.7	−12.9	13.5	−6	20.2	2.1	6.2	−24.3	−5.6	−9.7	−4.9	−11.6	−51	−23.4	9.9	−10.8	78.6	% change of MS signal compared to control sample [20]: −10.5%; % change of MS signal compared to control sample [21]: −15.1%; % change of MS signal compared to control sample [22]: −8%; % change of MS signal compared to control sample [23]: −4.2%; % change of MS signal compared to control sample [24]: 10%; % change of MS signal compared to control sample [25]: 23.4%; % change of MS signal compared to control sample [26]: −7.3%; % change of MS signal compared to control sample [27]: 1.1%; % change of MS signal compared to control sample [28]: −15%
C=CC(=O)N1CC[C@H](Nc2nccc(Nc3ncc(C(=O)Nc4c(C)cccc4C)s3)n2)C1 [Example I-3]	5.1	−25.1	−7.8	−10.1	10.4	−17	13	−6.1	0.2	−13.9	6.4	−2	−10.2	−3.3	0.6	31.7	2.4	−18.8	−14.1	91.7	% change of MS signal compared to control sample [20]: −4.9%; % change of MS signal compared to control sample [21]: −9.6%; % change of MS signal compared to control sample [22]: −3.6%; % change of MS signal compared to control sample [23]: 2.3%; % change of MS signal compared to control sample [24]: −14.1%; % change of MS signal compared to control sample [25]: −15.6%; % change of MS signal compared to control sample [26]: 2.6%; % change of MS signal compared to control sample [27]: −0.4%; % change of MS signal compared to control sample [28]: 13.4%
